# Values quoted from earlier work, collected in patent US12533334B2, “Compositions and methods for modulating equine fatty acid profiles” (KENTUCKY EQUINE RESEARCH, INC., priority 2021, dated 2026).
# Tested on: aspirin-induced gastric hemorrhage
# Conditions: rats subjected to aspirin-induced gastric hemorrhage, dietary supplementation
row,SMILES,Gastric hemorrhage
1,"CCCCC/C=C\C/C=C\C/C=C\CCCCC(=O)O [GLA, gamma linolenic acid]",no gastric hemorrhage
2,"CCCCC/C=C\C/C=C\CCCCCCCC(=O)O [LA, linoleic acid]",3 of 8
